Results as given in patent US20220144812A1, “QUINOLINE DERIVATIVES AND THEIR USE FOR THE TREATMENT OF CANCER” (Epizyme, Inc., priority 2019, published 2022).
Where two headings read alike, the source gives them in different places.

Key:
[1] = test system: H3K18Ac in HB-CLS-2 cells; assay: H3K18AC in-cell western (ICW) assay; type: cell-based; details: read-out: CREBBP ICW IC50
Method in brief: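 In-cell western: after methanol fixation, blocking, overnight 4° C anti-H3K18Ac staining, then 800CW secondary plus DRAQ5 for DNA content, integrated intensities were scanned at 800 and 700 nm. Before this, compound exposure lasted 2 hr at 37° C in HB-CLS-2 cells plated 16–24 hours earlier. Values expressed as IC50 (μM).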

[2] = test system: 647V cells; assay: High throughput proliferation (HTP) assay; type: cell-based; details: read-out: CREBBP HTP IC50
Source text: The following example describes methods and materials relating to a high throughput proliferation (HTP) assay. IC50 values (micromolar) are summarized in Table 1, Table 2, and Table 3 under the column labeled: “CREBBP HTP IC50 (micromolar).”
MATERIALS: 647V cell line, Dulbecco's MEM, penicillin-streptomycin, heat inactivated fetal bovine serum, D-PBS, and CellTiter-Glo were commercially available.
647V adherent cells were maintained in complete growth medium (Dulbecco's MEM supplemented with 15% v/v heat inactivated fetal bovine serum) and cultured at 37° C. under 5% CO2.
METHOD: Measurement of the effect of compound in High Throughput Proliferation (HTP) assays was performed as follows: Exponentially growing 647V cells were plated, in triplicate, in 384-well plates at the appropriate cell density in a final volume of 50 μl. Cells were incubated in the presence of increasing concentrations of compound. Viable cell number was determined at day 7 by addition of 35 μl CellTiter-Glo to each well of the plate, incubated in the dark for 30 minutes, and read on a PerkinElmer EnVision instrument to enumerate the number of cells.

[3] = biological target: T1, CREBBP (1084-1701) (Homo sapiens, UniProt Q92793); assay: Biochemical assay for CREBBP (1084-1701), SAMDI; details: SAMDI, read-out: CREBBP Biochemistry IC50
T1 construct: measured in the following biochemical assay using CREBBP (1084-1701); purchased
T1 sequence (Q92793 1084-1701): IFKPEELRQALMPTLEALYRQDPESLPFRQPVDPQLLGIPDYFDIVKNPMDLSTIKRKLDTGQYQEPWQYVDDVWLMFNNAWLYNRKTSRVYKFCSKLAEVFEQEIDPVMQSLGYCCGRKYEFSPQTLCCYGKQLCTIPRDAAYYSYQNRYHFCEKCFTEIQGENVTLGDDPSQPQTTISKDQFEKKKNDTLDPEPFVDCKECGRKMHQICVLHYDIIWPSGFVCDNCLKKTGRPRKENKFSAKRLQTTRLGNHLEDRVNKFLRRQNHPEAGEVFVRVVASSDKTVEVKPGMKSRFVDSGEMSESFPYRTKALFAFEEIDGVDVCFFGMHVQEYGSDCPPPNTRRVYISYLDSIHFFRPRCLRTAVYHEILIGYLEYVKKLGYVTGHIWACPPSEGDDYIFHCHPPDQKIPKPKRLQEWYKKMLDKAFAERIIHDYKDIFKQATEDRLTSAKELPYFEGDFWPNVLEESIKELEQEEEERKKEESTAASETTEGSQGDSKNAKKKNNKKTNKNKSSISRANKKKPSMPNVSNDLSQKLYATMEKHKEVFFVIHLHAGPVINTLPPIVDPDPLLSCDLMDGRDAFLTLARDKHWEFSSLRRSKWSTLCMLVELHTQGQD
Method in brief: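 Acetyltransferase activity measured by SAMDI mass spectrometry after capture on biochip. Enzyme sat with compound 30 min at RT before acetyl-CoA and biotinylated H3 11-25 (K14R, K23R) peptide were added for 30 min at RT. Formic acid quench, bicarbonate neutralisation; IC50 values reported.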

[4] = biological target: T2, EP300 (P300(1048-1664)) (Homo sapiens, UniProt Q09472); assay: Biochemical assay for EP300, SAMDI; details: EP300, SAMDI; read-out: EP300 Biochemistry IC50
T2 construct: P300(1048-1664)
T2 sequence (Q09472 1048-1664): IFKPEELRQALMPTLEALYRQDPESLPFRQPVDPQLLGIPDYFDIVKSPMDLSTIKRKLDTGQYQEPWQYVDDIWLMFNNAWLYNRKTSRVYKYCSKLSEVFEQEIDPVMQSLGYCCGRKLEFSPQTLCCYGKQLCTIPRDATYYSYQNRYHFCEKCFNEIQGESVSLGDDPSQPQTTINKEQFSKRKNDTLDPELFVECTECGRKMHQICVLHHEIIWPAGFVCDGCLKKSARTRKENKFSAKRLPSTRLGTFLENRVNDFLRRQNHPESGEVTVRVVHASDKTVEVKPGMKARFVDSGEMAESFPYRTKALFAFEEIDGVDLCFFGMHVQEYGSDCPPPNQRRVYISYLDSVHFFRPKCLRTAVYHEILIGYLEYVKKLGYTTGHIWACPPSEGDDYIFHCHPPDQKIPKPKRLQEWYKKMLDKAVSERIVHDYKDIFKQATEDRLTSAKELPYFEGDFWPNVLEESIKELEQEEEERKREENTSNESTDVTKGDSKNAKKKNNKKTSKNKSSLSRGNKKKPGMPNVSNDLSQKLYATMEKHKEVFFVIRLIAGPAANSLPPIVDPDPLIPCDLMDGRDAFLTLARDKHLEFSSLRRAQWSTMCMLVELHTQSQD
Source text: The following example describes materials and methods relating to a biochemical assay for EP300. IC50 values (micromolar (μM)) are summarized in Table 1, Table 2, and Table 3 under the column labeled: “EP300 Biochemistry IC50 (micromolar).”

[5] = Homo sapiens, 647-V, high throughput proliferation
[6] = H3K18Ac in-cell western, HB-CLS-2 cells
[7] = Homo sapiens, 647-V, high throughput proliferation, 647V cells
[8] = 2 h, H3K18Ac in HB-CLS-2 cells, 2 hrs compound incubation
[9] = Homo sapiens, 647-V, 168 h, 647V cells, day 7, CellTiter-Glo

CCn1ncc(CN(C)C(=O)c2nc(-c3ccc(OCCCNC)c(C)c3)nc3ccc(Cl)cc23)c1C [Compound 29]
IC50 ([1]; H3K18Ac in-cell western): 0.23 µM | IC50 [2, 5]: 0.1 µM | IC50 [3]: 0.028 µM

CCn1ncc(CN(C)C(=O)c2nc(-c3ccc(OCCCNC)c(C)c3)nc3ccc(Cl)cc23)c1C [Compound 36]
IC50 ([1]; H3K18Ac in-cell western): 0.3 µM | IC50 ([2]; high throughput proliferation): 0.18 µM | IC50 [3]: 0.052 µM

CCn1ncc(CN(C)C(=O)c2nc(-c3ccc4c[nH]nc4c3Cl)nc3ccc(COC)cc23)c1C [Compound 52]
IC50 ([1]; H3K18Ac in-cell western): 0.52 µM | IC50 [2, 5]: 0.69 µM | IC50 [3]: 0.25 µM

CCn1ncc(CN(C)C(=O)c2nc(-c3ccc4c[nH]nc4c3Cl)nc3ccc(COC)cc23)c1C [Compound 68]
IC50 ([1]; H3K18Ac in-cell western): 0.8 µM | IC50 ([2]; high throughput proliferation): 0.69 µM | IC50 [3]: 0.25 µM

CCn1ncc(CN(C)C(=O)c2nc(-c3cccc(Cl)c3)nc3ccc(Cl)cc23)c1C [Compound 71]
IC50 ([1]; H3K18Ac in-cell western): 0.92 µM | IC50 [2, 5]: 1.2 µM | IC50 [3]: 0.0094 µM

CCn1ncc(CN(C)C(=O)c2cc(-c3ccccc3C#N)nc3ccc(Cl)cc23)c1C [Compound 81]
IC50 ([1]; H3K18Ac in-cell western): 1.2 µM | IC50 [2, 5]: 2.2 µM | IC50 [3]: 1.8 µM

CCn1ncc(CN(C)C(=O)c2cc(-c3ccccc3F)nc3ccc(Cl)cc23)c1C [Compound 86]
IC50 ([1]; H3K18Ac in-cell western): 1.3 µM | IC50 [2, 5]: 1.4 µM | IC50 [3]: 0.71 µM

CCn1ncc(CN(C)C(=O)c2cc(-c3ccccn3)nc3ccc(Cl)cc23)c1C [Compound 92]
IC50 ([1]; H3K18Ac in-cell western): 1.7 µM | IC50 [2, 5]: 0.41 µM | IC50 [3]: 0.31 µM

CCn1ncc(CN(C)C(=O)c2cc(-c3cccc(Cl)c3)nc3ccc(Cl)cc23)c1C [Compound 106]
IC50 ([1]; H3K18Ac in-cell western): 2.4 µM | IC50 [2, 5]: 2.6 µM | IC50 [3]: 0.31 µM

CCn1ncc(CN(C)C(=O)c2nc(-c3cccc(Cl)c3)nc3ccccc23)c1C [Compound 130]
IC50 ([1]; H3K18Ac in-cell western): 4.7 µM | IC50 [2, 5]: 6.5 µM | IC50 [3]: 2 µM

Cc1c(CN(C)C(=O)c2cc(-c3cccc(Cl)c3)nc3ccc(Cl)cc23)cnn1C(C)C [Compound 132]
IC50 ([1]; H3K18Ac in-cell western): 4.9 µM | IC50 [2, 5]: 2.2 µM | IC50 [3]: 0.31 µM

CCn1ncc(CN(C)C(=O)c2nc(-c3cncn3C)nc3ccc(Cl)cc23)c1C [Compound 158]
IC50 ([1]; H3K18Ac in-cell western): 9.8 µM | IC50 ([2]; high throughput proliferation): 6.6 µM | IC50 [3]: 14 µM

CCN(Cc1cnn(CC)c1C)C(=O)c1cc(-c2cccc(Cl)c2)nc2ccc(Cl)cc12 [Compound 175]
IC50 ([1]; H3K18Ac in-cell western): 15 µM | IC50 [2, 5]: 9.4 µM | IC50 [3]: 5.3 µM

CCn1ncc(CN(C)C(=O)c2nc(-c3ccn(CCCN4CCCC4)n3)nc3ccc(Cl)cc23)c1C [Compound 184]
IC50 ([2]; high throughput proliferation): 15 µM | IC50 [4]: 163 µM

CCn1ncc(CN(C)C(=O)c2nc(N3CCn4ncnc4C3)nc3ccc(Cl)cc23)c1C [Compound 190]
IC50 ([1]; H3K18Ac in-cell western): 20 µM | IC50 [2, 5]: 20 µM | IC50 [4]: 103 µM

CCn1ncc(CN(C)C(=O)c2nc(-c3cccc(Cl)c3)nc3cc(N4CCOCC4)c(Cl)cc23)c1C [Compound 200]
IC50 [1, 6]: 20 µM | IC50 [3]: 190 µM | IC50 [4]: 126 µM

CCn1ncc(CN(C)C(=O)c2nc(N3CCNCC3)nc3ccc(Cl)cc23)c1C [Compound 202]
IC50 [1, 6]: 20 µM | IC50 [4]: 175 µM

CCc1cc(-c2nc(C(=O)N(C)Cc3cnn(CC)c3C)c3cc(Cl)ccc3n2)ccc1OCCCN(C)C(=O)OC(C)(C)C [Compound 209]
IC50 [1, 6]: 20 µM | IC50 [2, 7]: 8.8 µM

CCn1ncc(CN(C)C(=O)c2nc(-c3cc(C(=O)NC)on3)nc3ccc(Cl)cc23)c1C [Compound 215]
IC50 [1, 6]: 20 µM | IC50 [4]: 41 µM

CCn1ncc(CN(C)C(=O)c2cc(-c3ccc(OCCCNC)cn3)nc3ccc(Cl)cc23)c1C [Compound 219]
IC50 [1, 6]: 20 µM | IC50 [2, 7]: 20 µM

CCc1[nH]cc(CN(C)C(=O)c2nc(-c3ccccc3Cl)nc3ccc(Cl)cc23)c1C [Compound 221]
IC50 [1, 6]: 20 µM | IC50 [2, 7]: 10 µM

CCn1ncc(CN(C)C(=O)c2nc(-c3cn(CCNC)cn3)nc3ccc(Cl)cc23)c1C [Compound 228]
IC50 [1, 6]: 20 µM | IC50 [2, 7]: 20 µM | IC50 [4]: 140 µM

Cc1n[nH]c(C)c1CN(C)C(=O)c1nc(-c2ccccc2Cl)nc2ccc(Cl)cc12 [Compound 229]
IC50 [1, 6]: 20 µM | IC50 [2, 7]: 20 µM

CCn1ncc(CN(C)C(=O)c2nc(-c3cn(CCCN(C)C(=O)OC(C)(C)C)cn3)nc3ccc(Cl)cc23)c1C [Compound 230]
IC50 [1, 6]: 20 µM | IC50 [2, 7]: 20 µM

CCn1ncc(CN(C)C(=O)c2nc(-c3cc(Cl)cc(OCCCN(C)C(=O)OC(C)(C)C)c3)nc3ccc(Cl)cc23)c1C [Compound 233]
IC50 [1, 6]: 20 µM | IC50 [2, 7]: 20 µM

Cc1c(CN(C)C(=O)c2nc(-c3cc(Cl)cc(CNC4CCCCC4)c3)nc3ccc(Cl)cc23)cnn1CO [Compound 236]
IC50 [1, 6]: 20 µM | IC50 [4]: 13 µM

CCn1ncc(CN(C)C(=O)c2nc(-c3cnc(CNC(C)=O)n3C)nc3ccc(Cl)cc23)c1C [Compound 237]
IC50 [4]: 50 µM

CCn1ncc(CN(C)C(=O)c2nc(-c3ccc(OCCNC)cn3)nc3ccc(Cl)cc23)c1C [Compound 238]
IC50 [1, 6]: 20 µM | IC50 [2, 7]: 20 µM

CCn1ncc(CN(C)C(=O)c2cc(-c3cn(Cc4ccc(OC)cc4)c(CN(C)C)n3)nc3ccc(Cl)cc23)c1C [Compound 239]
IC50 [1, 6]: 20 µM | IC50 [2, 7]: 20 µM

CCn1ncc(CN(C)C(=O)c2nc(-c3cn(CCN(C)C(=O)OC(C)(C)C)cn3)nc3ccc(Cl)cc23)c1C [Compound 240]
IC50 [1, 6]: 20 µM | IC50 [2, 7]: 20 µM

CCn1ncc(CN(C)C(=O)c2nc(N3CCN(C)CC3)nc3ccc(Cl)cc23)c1C [Compound 245]
IC50 [1, 6]: 20 µM | IC50 [2, 7]: 20 µM

CCn1ncc(CN(C)C(=O)c2nc(-c3cn(CCCNC)cn3)nc3ccc(Cl)cc23)c1C [Compound 247]
IC50 [1, 6]: 20 µM | IC50 [2, 7]: 20 µM | IC50 [4]: 157 µM

Cc1n[nH]c(C)c1CN(C)C(=O)c1nc(-c2cccc(Cl)c2)nc2ccc(Cl)cc12 [Compound 248]
IC50 [1, 6]: 20 µM | IC50 [2, 7]: 19 µM | IC50 [4]: 114 µM

CCn1ncc(CN(C)C(=O)c2nc(-c3ccccc3Cl)nc3ccccc23)c1C [Compound 284]
IC50 [1, 6]: 15 µM | IC50 [2, 7]: 8.5 µM | IC50 [3]: 13 µM

CCn1ncc(CN(C)C(=O)c2cc(-c3cnn[nH]3)nc3ccc(Cl)cc23)c1C [Compound 307]
IC50 [4]: 8 µM

CCn1ncc(CN(C)C(=O)c2cc(-c3cc(C)nc(C)n3)nc3ccc(Cl)cc23)c1C [Compound 411]
IC50 [3]: 50 µM | IC50 [4]: 50 µM

CCn1ncc(CN(C)C(=O)c2nc(-c3cc(C)c4cn[nH]c4c3)nc3ccc(Cl)cc23)c1C [Compound 412]
IC50 [1, 6]: 0.25 µM | IC50 [2, 7]: 0.15 µM | IC50 [4]: 0.13 µM

CCn1ncc(CN(C)C(=O)c2nc(-c3cc(C(=O)NC)n(C)n3)nc3ccc(COC)cc23)c1C [Compound 630]
IC50 ([1]; H3K18Ac in-cell western): 0.341 µM | IC50 [3]: 0.149 µM | IC50 [4]: 0.072 µM

CCn1ncc(CN(C)C(=O)c2cc(-c3ccc(NCC(O)CN(C)C)c(C)n3)nc3ccc(COC)cc23)c1C (stereo not drawn) [Compound 643]
IC50 [1, 8]: 0.327 µM | IC50 [2, 9]: 0.233 µM

CCc1ncc(CN(C)C(=O)c2cc(-c3ccc(NCC(O)CN(C)C)c(C)n3)nc3ccc(COC)cc23)n1C (stereo not drawn) [Compound 644]
IC50 [1, 8]: 0.701 µM | IC50 [2, 9]: 0.269 µM
